Residues, ends and D or L forms follow the SMILES beside them. No end group written: not given here. *: point of attachment. Biotin = O=C1N[C@H]2[C@H](CS[C@H]2CCCCC(=O)*)N1

One experiment deals with T1, INADL d3 (Homo sapiens, UniProt Q8NI35).
T1 construct: made in house; host or cells: E. coli (DH5alpha, BL21 or JM109)
T1 sequence (Q8NI35 with tags, fused parts or gaps): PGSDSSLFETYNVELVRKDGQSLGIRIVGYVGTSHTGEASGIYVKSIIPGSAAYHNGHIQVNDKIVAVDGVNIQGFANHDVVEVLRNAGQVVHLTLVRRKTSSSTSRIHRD
Nature of the experiment: G3 assay titration, GST-PDZ fusion / biotinylated peptide. The experiment is classed as binding. As to the method: (§1) The G3 assay is identical to the G0 assay with the following exceptions. The peptides are typically present at 0.1 μM rather than 20 μM. The peptides are also pre-incubated with the HRP-streptavidin prior to adding to the assay plate. In the G0 assay, free peptide is incubated with the PDZ proteins prior to the addition of the HRP-streptavidin. Thus, for the G0 assay one can lose signal if the bound peptide dissociates from the PDZ protein prior to the addition of the HRP-streptavidin. In the G3 modified assay the HRP-streptavidin/peptide complex is added to the plate in one step, thus increasing the likelihood that all the bound peptide will be bound to HRP-streptavidin. The G3 modified assay increases the chance of observing weak interactions.
(§2) This example describes assays to identify binding between TRPM7 and PDZ domains. GST-PDZ fusions are produced that each contain an entire PDZ domain (or multiple PDZ domains), the collection encompassing approximately 90% of all PDZ domains identified in the human genome. (See Table 5 and Section V (PDZ Proteins and PL Protein Interactions Disclosure). Biotinylated peptide corresponding to 11 residues of Tat coupled to the C-terminal 9 amino acids of TRPM7 ([…]; SEQ ID NO:258) is synthesized and purified by HPLC.
(§3) • Nunc MaxiSorp 96 well Immuno-plate, Nunc • PBS pH 7.4 (phosphate buffered saline, 8 g NaCl, 0.29 g KCl, 1.44 g Na2HPO4, 0.24 g KH2PO4, add H2O to 1 liter and pH 7.4; 0.2 μm filter) • Assay Buffer: 2% BSA in PBS (20 g of bovine serum albumin per liter PBS, fraction V, ICN Biomedicals, cat#IC15142983 • Goat anti-GST polyclonal Ab, stock 5 mg/ml, stored at 4° C., Amersham Pharmacia cat#27-4577-01 • Dilute 1:1000 in PBS, final concentration 5 μg/ml. • HRP-Streptavidin, 2.5 mg/2 ml stock stored at 4° C., Zymed cat#43-4323, dilute 1:2000 into Assay buffer, final concentration of […] • Wash Buffer, PBS • Biotinylated peptides (HPLC purified, stock solution stored in −20° C. freezer) • GST-PRISM proteins (stock stored at −80° C., after 1st thaw store in −10° C. freezer) • TMB (3,3′,5,5′, teramethylbensidine), tablets, Sigma cat.#T5525 • Per plate, dissolve 1 tablet in 1 ml DMSO, add 9 ml Citrate/Phosphate buffer pH 5.4 and 2 μL H2O2 • 0.1 M H2SO4, Sigma cat.#S1526 • 12-w multichannel pipettor & tips • 50 ml reagent reservoirs, Costar#4870 • 50, 15 ml polypropylene conical tubes • Costar Transtar 96 Costar #7605 • Transtar 96 Cartridge Costar #7610 • Molecular Devices microplate reader (450 & 650 nm filters) with SoftMax Pro software *When using reagents stored at or 4° C. or −20° C., remove & keep on ice
(§4) • 1. Coat plate with 100 μl of 5 μg/ml anti-GST, overnight at 4° C. • 2. Dump contents of plate & out tap dry on paper towels • 3. Block with 200 μl Assay Buffer for 2 hrs at room temperature • 4. Prepare proteins at 5 μg/ml in Assay Buffer • 5. Wash 3× with cold PBS (4° C.), avoiding letting the plates dry out • 6. Add proteins at 50 μl per well, incubate 1 to 2 hrs at 4° C. • 7. Prepare peptides to desired concentration in Assay Buffer • 8. Wash 3× with cold PBS (4° C.), avoiding letting the plates dry out • 9. Add HRP-Streptavidin/peptide complex [prepared by incubating for 20 minutes at room temperature HRP-Streptavidin (1:2000) with the desired biotin-peptide concentration for 20 minutes at room temperature] at 50 μl per well on ice • 10. Place at room temperature for exactly 30 minutes • 11. Promptly wash 5× with PBS at room temperature • 12. Add 100 μl/well TMB substrate (write time on plate) • 13. Incubate in dark at room temperature for a maximum of 30 minutes • 14. Read plate at 25 minutes (650 nm), optional • 15. Stop reaction with 100 μl of 0.18 M H2SO4, 30 minutes after adding TMB • Take last reading at 450 nm soon after stopping reaction
(§5) The G3 assay was performed using 0.1 μM peptide representing 11 amino acids of Tat fused to the final 9 amino acids of TRPM7 ([…]; SEQ ID NO:258). […]

Another experiment addresses T2, ZO-1 d2 (Homo sapiens, UniProt Q07157, DEL264-264).
T2 construct: made in house; host or cells: E. coli (DH5alpha, BL21 or JM109)
T2 sequence (Q07157 with tags, fused parts or gaps DEL264-264): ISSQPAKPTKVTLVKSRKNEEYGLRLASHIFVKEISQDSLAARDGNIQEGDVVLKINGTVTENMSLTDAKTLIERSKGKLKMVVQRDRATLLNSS
The experiment is described as above. The experiment is classed as binding. As to the method: as §1, §2, §3, §4, §5

In turn, `CC(C)[C@H](NC(=O)[C@H](Cc1c[nH]c2ccccc12)NC(=O)[C@@H](NC(=O)[C@H](CCC(=O)O)NC(=O)[C@H](CCCNC(=N)N)NC(=O)[C@H](CCCNC(=N)N)NC(=O)CNC(=O)[C@H](CCCNC(=N)N)NC(=O)[C@H](C)NC(=O)[C@H](CCCNC(=N)N)NC(=O)[C@H](CCCNC(=N)N)NC(=O)[C@H](CCCNC(=N)N)NC(=O)[C@H](CCC(N)=O)NC(=O)[C@H](CCCNC(=N)N)NC(=O)[C@H](CCCNC(=N)N)NC(=O)[C@H](CCCCN)NC(=O)[C@H](CCCCN)NC(=O)[C@H](CCCNC(=N)N)NC(=O)CNC(=O)[C@H](Cc1ccc(O)cc1)NC(=O)CCCC[C@@H]1SC[C@@H]2NC(=O)N[C@@H]21)[C@@H](C)O)C(=O)O` [Peptide 1854] (Biotin-YGRKKRRQRRRARGRRETWV-OH) yielded an EC50 on INADL d3 of less than 20 nM. On to `CC(C)C[C@H](NC(=O)[C@H](CCCNC(=N)N)NC(=O)[C@@H](NC(=O)CNC(=O)[C@H](CCCNC(=N)N)NC(=O)[C@H](C)NC(=O)[C@H](CCCNC(=N)N)NC(=O)[C@H](CCCNC(=N)N)NC(=O)[C@H](CCCNC(=N)N)NC(=O)[C@H](CCC(N)=O)NC(=O)[C@H](CCCNC(=N)N)NC(=O)[C@H](CCCNC(=N)N)NC(=O)[C@H](CCCCN)NC(=O)[C@H](CCCCN)NC(=O)[C@H](CCCNC(=N)N)NC(=O)CNC(=O)[C@H](Cc1ccc(O)cc1)NC(=O)CCCC[C@@H]1SC[C@@H]2NC(=O)N[C@@H]21)[C@@H](C)O)C(=O)N[C@H](C(=O)N[C@@H](Cc1c[nH]c2ccccc12)C(=O)N[C@H](C(=O)O)C(C)C)C(C)C` [Peptide 1844] (Biotin-YGRKKRRQRRRARGTRLVWV-OH), for which the 50% effective concentration (EC50) on INADL d3 and on ZO-1 d2 was less than 20 nM each time. Molecule `CC(C)[C@H](NC(=O)[C@H](CCC(=O)O)NC(=O)[C@@H](NC(=O)[C@H](CCCCN)NC(=O)[C@H](CCCNC(=N)N)NC(=O)[C@H](CC(=O)O)NC(=O)[C@@H](NC(=O)[C@H](CCCNC(=N)N)NC(=O)[C@H](C)NC(=O)[C@H](CCCNC(=N)N)NC(=O)[C@H](CCCNC(=N)N)NC(=O)[C@H](CCCNC(=N)N)NC(=O)[C@H](CCC(N)=O)NC(=O)[C@H](CCCNC(=N)N)NC(=O)[C@H](CCCNC(=N)N)NC(=O)[C@H](CCCCN)NC(=O)[C@H](CCCCN)NC(=O)[C@H](CCCNC(=N)N)NC(=O)CNC(=O)[C@H](Cc1ccc(O)cc1)NC(=O)CCCC[C@@H]1SC[C@@H]2NC(=O)N[C@@H]21)[C@@H](C)O)C(C)C)C(=O)O` [Peptide 1837] (Biotin-YGRKKRRQRRRARTDRKVEV-OH) gave an EC50 on ZO-1 d2 of less than 20 nM.

Take `CC[C@H](C)[C@H](NC(=O)[C@@H](NC(=O)[C@H](CCCNC(=N)N)NC(=O)[C@H](CC(=O)O)NC(=O)CNC(=O)[C@H](CCCNC(=N)N)NC(=O)[C@H](C)NC(=O)[C@H](CCCNC(=N)N)NC(=O)[C@H](CCCNC(=N)N)NC(=O)[C@H](CCCNC(=N)N)NC(=O)[C@H](CCC(N)=O)NC(=O)[C@H](CCCNC(=N)N)NC(=O)[C@H](CCCNC(=N)N)NC(=O)[C@H](CCCCN)NC(=O)[C@H](CCCCN)NC(=O)[C@H](CCCNC(=N)N)NC(=O)CNC(=O)[C@H](Cc1ccc(O)cc1)NC(=O)CCCC[C@@H]1SC[C@@H]2NC(=O)N[C@@H]21)[C@@H](C)O)C(=O)N[C@H](C(=O)N[C@@H](Cc1ccc(O)cc1)C(=O)O)[C@@H](C)CC` [Peptide 1848] (Biotin-YGRKKRRQRRRARGDRTIIY-OH): the values for the EC50 at INADL d3 and on ZO-1 d2 were less than 2000 nM and less than 20 nM, respectively. Molecule `CC(C)[C@H](NC(=O)[C@@H]1CCCN1C(=O)[C@@H](NC(=O)[C@H](CCCCN)NC(=O)[C@H](CCCNC(=N)N)NC(=O)[C@H](CC(=O)O)NC(=O)CNC(=O)[C@H](CCCNC(=N)N)NC(=O)[C@H](C)NC(=O)[C@H](CCCNC(=N)N)NC(=O)[C@H](CCCNC(=N)N)NC(=O)[C@H](CCCNC(=N)N)NC(=O)[C@H](CCC(N)=O)NC(=O)[C@H](CCCNC(=N)N)NC(=O)[C@H](CCCNC(=N)N)NC(=O)[C@H](CCCCN)NC(=O)[C@H](CCCCN)NC(=O)[C@H](CCCNC(=N)N)NC(=O)CNC(=O)[C@H](Cc1ccc(O)cc1)NC(=O)CCCC[C@@H]1SC[C@@H]2NC(=O)N[C@@H]21)C(C)C)C(=O)O` [Peptide 1841] (Biotin-YGRKKRRQRRRARGDRKVPV-OH) displayed an EC50 at ZO-1 d2 of less than 20 nM. On the same count and under the same terms, then `CC[C@H](C)[C@H](NC(=O)[C@H](CO)NC(=O)[C@@H](NC(=O)[C@H](C)NC(=O)[C@H](C)NC(=O)[C@@H](NC(=O)[C@H](C)NC(=O)[C@H](CCCNC(=N)N)NC(=O)[C@H](CCCNC(=N)N)NC(=O)[C@H](CCCNC(=N)N)NC(=O)[C@H](CCC(N)=O)NC(=O)[C@H](CCCNC(=N)N)NC(=O)[C@H](CCCNC(=N)N)NC(=O)[C@H](CCCCN)NC(=O)[C@H](CCCCN)NC(=O)[C@H](CCCNC(=N)N)NC(=O)CNC(=O)[C@H](Cc1ccc(O)cc1)NC(=O)CCCC[C@@H]1SC[C@@H]2NC(=O)N[C@@H]21)C(C)C)[C@@H](C)O)C(=O)N[C@@H](CC(N)=O)C(=O)N[C@@H](CC(C)C)C(=O)O` [Peptide 1791] (Biotin-YGRKKRRQRRRAVAATSINL-OH), with less than 100 nM. As to “Biotin-YGRKKRRQRRRSRTDRLEYV [Peptide 1846]”, the “ODmax (450 nm)” value on INADL d3 (Table 10, titration of peptides with INADL d3) is 1.50. On to `CC[C@H](C)[C@H](NC(=O)[C@H](Cc1ccc(O)cc1)NC(=O)[C@H](CCCCN)NC(=O)[C@H](CCCNC(=N)N)NC(=O)[C@H](CC(=O)O)NC(=O)CNC(=O)[C@H](CCCNC(=N)N)NC(=O)[C@H](C)NC(=O)[C@H](CCCNC(=N)N)NC(=O)[C@H](CCCNC(=N)N)NC(=O)[C@H](CCCNC(=N)N)NC(=O)[C@H](CCC(N)=O)NC(=O)[C@H](CCCNC(=N)N)NC(=O)[C@H](CCCNC(=N)N)NC(=O)[C@H](CCCCN)NC(=O)[C@H](CCCCN)NC(=O)[C@H](CCCNC(=N)N)NC(=O)CNC(=O)[C@H](Cc1ccc(O)cc1)NC(=O)CCCC[C@@H]1SC[C@@H]2NC(=O)N[C@@H]21)C(=O)N[C@H](C(=O)O)C(C)C` [Peptide 1838] (Biotin-YGRKKRRQRRRARGDRKYIV-OH), for which the EC50 at INADL d3 and at ZO-1 d2 was less than 100 nM each time. As for `CC[C@H](C)[C@H](NC(=O)[C@H](CCCCN)NC(=O)[C@H](CCCNC(=N)N)NC(=O)[C@H](CC(=O)O)NC(=O)CNC(=O)[C@H](CCCNC(=N)N)NC(=O)[C@H](C)NC(=O)[C@H](CCCNC(=N)N)NC(=O)[C@H](CCCNC(=N)N)NC(=O)[C@H](CCCNC(=N)N)NC(=O)[C@H](CCC(N)=O)NC(=O)[C@H](CCCNC(=N)N)NC(=O)[C@H](CCCNC(=N)N)NC(=O)[C@H](CCCCN)NC(=O)[C@H](CCCCN)NC(=O)[C@H](CCCNC(=N)N)NC(=O)CNC(=O)[C@H](Cc1ccc(O)cc1)NC(=O)CCCC[C@@H]1SC[C@@H]2NC(=O)N[C@@H]21)C(=O)N[C@@H](CCCNC(=N)N)C(=O)N[C@H](C(=O)O)C(C)C` [Peptide 1836] (Biotin-YGRKKRRQRRRARGDRKIRV-OH), at ZO-1 d2, the 50% effective concentration (EC50) was less than 10 nM.

In general, EC50 refers to the concentration giving half of the maximal effect. Low readings indicate greater potency, high ones weaker potency.
